US5665886A, “Salts of substituted nitrogenous heteroaromatic compounds, a process for their preparation and pharmaceutical compositions containing them” (Sanofi, priority 1994, dated 1997)

Tested on: substance P receptor NK1
Test: Binding (inhibition of fixation) of [125I]BH-SP to NK1 receptors in rat cortex, guinea pig ileum and human lymphoblastic cells
Experimental: The affinity of compounds for tachykinin receptors has been evaluated in vitro by a number of biochemical tests using radioligands: 1) Bonding of [^125 I]BH-SP (substance P labelled with iodine-125 using a Bolton-Hunter reagent) to NK1 receptors in the rat cortex, the guinea pig ileum and human lymphoblastic cells. The tests were carried out as described in X. Emonds et al., (Eur. J. Pharmacol., 1993, 250, 403-413).

SMILES | antagonism of substance P receptor NK1
CC(C)Oc1cccc(CC(=O)N(C)CC(CC[n+]2ccc(Cc3ccccc3)cc2)c2ccc(Cl)c(Cl)c2)c1 (centres unmarked) [Example 2, 4-benzyl-1-[3-(3,4-dichlorophenyl)-4)-4-[N-methyl-(3-iso-propyloxyphenyl)acetylamino]butyl]pyridinium methanesulfonate dihydrate] | powerful antagonists
CC(C)Oc1cccc(CC(=O)N2CCCC(CC[n+]3ccc(Cc4ccccc4)cc3)(c3ccc(Cl)c(Cl)c3)C2)c1.O.O.[Cl-] (centres unmarked) [Example 4, 4-benzyl-1-[2-[3-(3,4-dichlorophenyl)-1-[(3-isopropoxyphenyl)-acetyl]piperidin-3-yl]ethyl]pyridinium chloride dihydrate] | powerful antagonists
